# Laboratory results: publication PMC11206203, “Peptide macrocyclisation via intramolecular interception of visible-light-mediated desulfurisation” (Chemical Science, 2024)
# Key:
# [1] = Same desulfurative C-C cyclisation as series A (TCEP, Ir photocatalyst, blue light) with N-terminal Cys and C-terminal allylglycine (reversed pentapeptides); details: the molecule shown is the open-chain precursor; 17-membered ring; 6 M Gdn.HCl, 0.1 M Na2HPO4 pH 7.5-8.0 / MeCN 9:1; 0.5 mM; 25.0 °C
# [2] = C(sp3)-C(sp3) bond formation by visible-light-mediated Cys desulfurisation: alanyl radical adds to terminal alkene of allylglycine (or O-allyl Ser, pentenylGly, acrylamide); TCEP 50 eq (25 mM), (Ir[dF(CF3)ppy]2(dtbpy))PF6 1 mol%, 450 nm blue LED; unprotected peptides; details: 6 M Gdn.HCl, 0.1 M Na2HPO4 pH 7.5-8.0 / MeCN 9:1, 0.5 mM, 25.0 °C
smiles,measurement,setting,value
C=CC[C@H](NC(=O)[C@H](CCC(=O)O)NC(=O)[C@H](Cc1ccccc1)NC(=O)[C@H](C)NC(=O)[C@H](CS)NC(C)=O)C(N)=O [Ac-Cys-Ala-Phe-Glu-(allylGly)-NH2],"ring closure, conversion by HPLC",[1],0%
C=CC[C@H](NC(=O)[C@H](CCSC)NC(=O)[C@H](Cc1ccc(O)cc1)NC(=O)[C@H](CC(C)C)NC(=O)[C@H](CS)NC(C)=O)C(N)=O [Ac-Cys-Leu-Tyr-Met-(allylGly)-NH2],"ring closure, conversion by HPLC",[1],21%
C=CC[C@H](NC(=O)[C@H](CCCNC(=N)N)NC(=O)[C@H](Cc1c[nH]c2ccccc12)NC(=O)[C@@H](NC(=O)[C@H](CS)NC(C)=O)[C@@H](C)CC)C(N)=O [Ac-Cys-Ile-Trp-Arg-(allylGly)-NH2],"ring closure, conversion by HPLC",[1],7%
C=CC[C@H](NC(=O)[C@H](CCSC)NC(=O)[C@H](Cc1ccc(O)cc1)NC(=O)[C@H](CC(C)C)NC(=O)[C@@H](N)CS)C(N)=O [H-Cys-Leu-Tyr-Met-(allylGly)-NH2],"ring closure, conversion by HPLC",[1],0%
C=CC[C@H](NC(=O)[C@H](CCCCN)NC(=O)[C@@H]1CCCN1C(=O)[C@@H](NC(=O)[C@H](CS)NC(C)=O)[C@@H](C)O)C(N)=O [Ac-Cys-Thr-Pro-Lys-(allylGly)-NH2],"ring closure, conversion by HPLC",[1],0%
C=CC[C@H](NC(=O)[C@H](CCCNC(=N)N)NC(=O)[C@H](Cc1c[nH]c2ccccc12)NC(=O)[C@@H](NC(=O)[C@@H](N)CS)[C@@H](C)CC)C(N)=O [H-Cys-Ile-Trp-Arg-(allylGly)-NH2],"ring closure, conversion by HPLC",[1],0%
C=CC[C@H](NC(=O)[C@H](CCC(=O)O)NC(=O)[C@H](Cc1ccccc1)NC(=O)[C@H](C)NC(=O)[C@@H](N)CS)C(N)=O [H-Cys-Ala-Phe-Glu-(allylGly)-NH2],"ring closure, conversion by HPLC",[1],25%
C[C@@H]1NC(=O)[C@H](Cc2ccccc2)NC(=O)[C@H](C)NC(=O)[C@@H](N)COCCCC[C@@H](C(N)=O)NC1=O [H-Ser(OAllyl)-Ala-Phe-Ala-Cys-NH2],"ring closure, isolated yield","[2]; from C=CCOC[C@H](N)C(=O)N[C@@H](C)C(=O)N[C@@H](Cc1ccccc1)C(=O)N[C@@H](C)C(=O)N[C@@H](CS)C(N)=O, 19-membered ring, 1.0 h",78%
C=CC[C@H](NC(=O)[C@H](CCC(N)=O)NC(=O)[C@H](Cc1c[nH]cn1)NC(=O)[C@@H](NC(=O)[C@H](CS)NC(C)=O)C(C)C)C(N)=O [Ac-Cys-Val-His-Gln-(allylGly)-NH2],"ring closure, conversion by HPLC",[1],28%
CSCC[C@@H]1NC(=O)[C@H](Cc2ccc(O)cc2)NC(=O)[C@H](CC(C)C)NC(=O)[C@@H](N)CCCC[C@@H](C(N)=O)NC1=O [H-(allylGly)-Leu-Tyr-Met-Cys-NH2],"ring closure, isolated yield","[2]; from C=CC[C@H](N)C(=O)N[C@@H](CC(C)C)C(=O)N[C@@H](Cc1ccc(O)cc1)C(=O)N[C@@H](CCSC)C(=O)N[C@@H](CS)C(N)=O, 17-membered ring",54%
CC(=O)N[C@H]1CCCC[C@@H](C(N)=O)NC(=O)[C@H](Cc2c[nH]c3ccccc23)NC(=O)[C@H](CCC(N)=O)NC(=O)[C@H](CC(C)C)NC(=O)[C@H](CCC(=O)O)NC1=O [Ac-(allylGly)-Glu-Leu-Gln-Trp-Cys-NH2],"ring closure, isolated yield","[2]; from C=CC[C@H](NC(C)=O)C(=O)N[C@@H](CCC(=O)O)C(=O)N[C@@H](CC(C)C)C(=O)N[C@@H](CCC(N)=O)C(=O)N[C@@H](Cc1c[nH]c2ccccc12)C(=O)N[C@@H](CS)C(N)=O, 20-membered ring",37%
NCCCC[C@@H]1NC(=O)[C@H](CC(=O)O)NC(=O)[C@@H](N)CCCC[C@@H](C(N)=O)NC(=O)[C@H](CCC(=O)O)NC(=O)[C@H](Cc2c[nH]cn2)NC(=O)[C@H](CC(N)=O)NC(=O)[C@H](Cc2ccccc2)NC1=O [H-(allylGly)-Asp-Lys-Phe-Asn-His-Glu-Cys-NH2],"ring closure, isolated yield","[2]; from C=CC[C@H](N)C(=O)N[C@@H](CC(=O)O)C(=O)N[C@@H](CCCCN)C(=O)N[C@@H](Cc1ccccc1)C(=O)N[C@@H](CC(N)=O)C(=O)N[C@@H](Cc1c[nH]cn1)C(=O)N[C@@H](CCC(=O)O)C(=O)N[C@@H](CS)C(N)=O, 26-membered ring",70%
CCCC[C@@H]1NC(=O)[C@H](CO)NC(=O)[C@H](CC(=O)O)NC(=O)CNC(=O)[C@H](C(C)C)NC(=O)[C@H](CCC(N)=O)NC(=O)[C@@H](NC(=O)[C@H](CC(C)C)NC(=O)[C@H](Cc2c[nH]cn2)NC(=O)[C@H](CCCNC(=N)N)NC(C)=O)CCCC[C@@H](C(=O)N[C@@H](CCCNC(=N)N)C(=O)N[C@@H](CO)C(=O)N[C@H](C(N)=O)[C@@H](C)CC)NC1=O,"ring closure, isolated yield","[2]; from C=CC[C@H](NC(=O)[C@H](CC(C)C)NC(=O)[C@H](Cc1c[nH]cn1)NC(=O)[C@H](CCCNC(=N)N)NC(C)=O)C(=O)N[C@@H](CCC(N)=O)C(=O)N[C@H](C(=O)NCC(=O)N[C@@H](CC(=O)O)C(=O)N[C@@H](CO)C(=O)N[C@@H](CCCC)C(=O)N[C@@H](CS)C(=O)N[C@@H](CCCNC(=N)N)C(=O)N[C@@H](CO)C(=O)N[C@H](C(N)=O)[C@@H](C)CC)C(C)C, 26-membered ring",23%
CC(=O)N[C@H]1CCCC[C@@H](C(N)=O)NC(=O)[C@H](CC(=O)O)NC(=O)CNC(=O)[C@H](C(C)C)NC1=O [Ac-(allylGly)-Val-Gly-Asp-Cys-NH2],"ring closure, isolated yield","[2]; from C=CC[C@H](NC(C)=O)C(=O)N[C@H](C(=O)NCC(=O)N[C@@H](CC(=O)O)C(=O)N[C@@H](CS)C(N)=O)C(C)C, 17-membered ring",54%
CC[C@H](C)[C@@H]1NC(=O)[C@H](Cc2ccc(O)cc2)NC(=O)[C@@H](N)CCCC[C@@H](C(=O)N2CCC[C@H]2C(=O)N[C@@H](CC(C)C)C(=O)NCC(N)=O)NC(=O)[C@H](CC(N)=O)NC(=O)[C@H](CCC(N)=O)NC1=O [H-(allylGly)-Tyr-Ile-Gln-Asn-Cys-Pro-Leu-Gly-NH2],"ring closure, isolated yield","[2]; from C=CC[C@H](N)C(=O)N[C@@H](Cc1ccc(O)cc1)C(=O)N[C@H](C(=O)N[C@@H](CCC(N)=O)C(=O)N[C@@H](CC(N)=O)C(=O)N[C@@H](CS)C(=O)N1CCC[C@H]1C(=O)N[C@@H](CC(C)C)C(=O)NCC(N)=O)[C@@H](C)CC, 20-membered ring",0%
CCCC[C@H](NC(=O)[C@@H]1CCCC[C@H](NC(=O)[C@H](C)NC(=O)[C@H](CC(C)C)NC(=O)[C@H](Cc2c[nH]cn2)NC(C)=O)C(=O)N[C@@H](C(C)C)C(=O)NCC(=O)N[C@@H](CC(=O)O)C(=O)N1)C(=O)N[C@@H](CC(=O)O)C(=O)N[C@@H](CCCNC(=N)N)C(N)=O [Ac-His-Leu-Ala-(allylGly)-Val-Gly-Asp-Cys-Nle-Asp-Arg-NH2],"ring closure, isolated yield","[2]; from C=CC[C@H](NC(=O)[C@H](C)NC(=O)[C@H](CC(C)C)NC(=O)[C@H](Cc1c[nH]cn1)NC(C)=O)C(=O)N[C@H](C(=O)NCC(=O)N[C@@H](CC(=O)O)C(=O)N[C@@H](CS)C(=O)N[C@@H](CCCC)C(=O)N[C@@H](CC(=O)O)C(=O)N[C@@H](CCCNC(=N)N)C(N)=O)C(C)C, 17-membered ring",23%
C[C@@H]1NC(=O)[C@H](Cc2ccccc2)NC(=O)[C@H](C)NC(=O)[C@@H](N)CCCC[C@@H](C(N)=O)NC1=O [H-(allylGly)-Ala-Phe-Ala-Cys-NH2],"ring closure, isolated yield","[2]; from C=CC[C@H](N)C(=O)N[C@@H](C)C(=O)N[C@@H](Cc1ccccc1)C(=O)N[C@@H](C)C(=O)N[C@@H](CS)C(N)=O, 17-membered ring, 0.75 h",79%
CSCC[C@@H]1NC(=O)[C@@H](N)CCCC[C@@H](C(N)=O)NC(=O)[C@H](CCCCN)NC(=O)[C@H](CCC(=O)O)NC(=O)[C@H](CC(C)C)NC(=O)[C@H](C)NC1=O [H-(allylGly)-Met-Ala-Leu-Glu-Lys-Cys-NH2],"ring closure, isolated yield","[2]; from C=CC[C@H](N)C(=O)N[C@@H](CCSC)C(=O)N[C@@H](C)C(=O)N[C@@H](CC(C)C)C(=O)N[C@@H](CCC(=O)O)C(=O)N[C@@H](CCCCN)C(=O)N[C@@H](CS)C(N)=O, 23-membered ring",44%
C=CC[C@H](NC(=O)[C@H](CCC(N)=O)NC(=O)[C@H](Cc1c[nH]cn1)NC(=O)[C@@H](NC(=O)[C@@H](N)CS)C(C)C)C(N)=O [H-Cys-Val-His-Gln-(allylGly)-NH2],"ring closure, conversion by HPLC",[1],0%
CC1CC[C@@H](C(N)=O)NC(=O)[C@H](C)NC(=O)[C@H](Cc2ccccc2)NC(=O)[C@H](C)NC(=O)[C@@H](N)COC1 (stereo partly drawn) [H-Ser(O-2-methylallyl)-Ala-Phe-Ala-Cys-NH2],"ring closure, isolated yield","[2]; from C=C(C)COC[C@H](N)C(=O)N[C@@H](C)C(=O)N[C@@H](Cc1ccccc1)C(=O)N[C@@H](C)C(=O)N[C@@H](CS)C(N)=O, 19-membered ring, 0.17 h",77%
C=CC[C@H](NC(=O)[C@H](CCCCN)NC(=O)[C@@H]1CCCN1C(=O)[C@@H](NC(=O)[C@@H](N)CS)[C@@H](C)O)C(N)=O [H-Cys-Thr-Pro-Lys-(allylGly)-NH2],"ring closure, conversion by HPLC",[1],0%
CC(=O)N[C@H]1CCCC[C@@H](C(N)=O)NC(=O)[C@H](CCC(=O)O)NC(=O)[C@H](Cc2ccccc2)NC(=O)[C@H](C)NC1=O [Ac-(allylGly)-Ala-Phe-Glu-Cys-NH2],"ring closure, isolated yield","[2]; from C=CC[C@H](NC(C)=O)C(=O)N[C@@H](C)C(=O)N[C@@H](Cc1ccccc1)C(=O)N[C@@H](CCC(=O)O)C(=O)N[C@@H](CS)C(N)=O, 17-membered ring",74%
